From patent US20210003596A1, “CHEMILUMINESCENT ANDROSTENEDIONE CONJUGATES” (Siemens Healthcare Diagnostics Inc., priority 2017, published 2021)

Tests used:
Assay in all cases: Competitive chemiluminescent immunoassay (ADVIA Centaur), binding of A4-AE conjugates to antibody on solid phase
Design in all cases: species or system sheep; key: a “+” indicates appreciable binding of the specified A4-AE conjugate to the specified antibody; a “−” indicates no appreciable binding was observed
[1] = tested on: monoclonal androstenedione antibody 3H10; settings: binding of A4-AE conjugate to 3H10 antibody, chemiluminescence; lite reagent 20 ng/mL tracer
Method: (§1) Evaluation of A4-AE conjugates was performed using the ADVIA Centaur family of immunoassay analyzers (available from Siemens Healthcare Diagnostics Inc., Tarrytown, N.Y.) using a competitive assay format which utilizes a solid phase reagent and a lite reagent. The lite reagent comprises 20 ng/mL of an A4-AE tracer compound. The solid reagent comprises superparamagnetic beads (Dynabeads® M-270 Streptavidin available from ThermoFisher Scientific) labeled with biotinylated monoclonal anti-A4 antibody. Biotinylated sheep monoclonal androstenedione antibodies 3C3, 3H10, or 4G8 (available from Bioventix, UK) are introduced to the streptavidin coated superparamagnetic beads in order to produce solid phase particles attached to the antibody. Solid phase particles mixed with A4-AE in the absence of A4, results in solid phase binding complexes with the A4-AE compounds. When the […], competition for formation of a binding complex at each antibody occurs between A4 and A4-AE conjugates. […] Therefore, an increase in androstenedione concentration in measured samples correlates with a decrease in chemiluminescence of separated and washed solid phase particles binding complexes. Chemiluminescence of the separated solid phase particle binding complexes is induced by addition of an acidic solution (0.5% Peroxide/0.45% Nitric Acid (vol/vol)) followed by a basic solution (0.25N […]/0.45% ARQUAD® 16-50 (w/v)) and measured. Reagent volumes, concentrations, and assay parameters were otherwise identical in each experiment other than variation of the A4-AE tracer conjugate measured. Samples of androstenedione used in the lite reagent were prepared using a human serum albumin-based matrix (available from Bioresource Technology, Inc.) with the androstenedione sample concentrations shown in FIGS. 2A-2D (ng/mL).
(§2) Chemiluminescence was monitored for a variety of A4-AE conjugates. Table 2 below and the corresponding FIGS. 2A-2D summarize the results of chemiluminescent experiments on several A4-AE conjugates which may be synthesized as described in the indicated Example number. In Table 3 a “+” indicates appreciable binding of the specified A4-AE conjugate to the specified antibody and a “−” indicates no appreciable binding was observed.

[2] = tested on: monoclonal androstenedione antibody 4G8; settings: binding of A4-AE conjugate to 4G8 antibody, chemiluminescence; lite reagent 20 ng/mL tracer
Method: as §1, §2

[3] = tested on: monoclonal androstenedione antibody 3C3; settings: binding of A4-AE conjugate to 3C3 antibody, chemiluminescence; lite reagent 20 ng/mL tracer
Method: as §1, §2

Molecule | 3H10 [1] | 4G8 [2] | 3C3 [3]
Cc1cc(C(=O)NCCC[N+](C)(CCCNC(=O)CON=C2CCC3C4CCC5=CC(=O)CCC5(C)C4CCC23C)CCCS(=O)(=O)[O-])cc(C)c1OC(=O)c1c2ccccc2[n+](CCCS(=O)(=O)[O-])c2ccccc12 (stereo not drawn) [compound 2, A4(17)-CMO-Z-ZAE] | − | − | −
Cc1cc(C(=O)NCCC[N+](C)(CCCNC(=O)COC[C@]23CCC(=O)C=C2CCC2C3CC[C@]3(C)C(=O)CCC23)CCCS(=O)(=O)[O-])cc(C)c1OC(=O)c1c2ccccc2[n+](CCCS(=O)(=O)[O-])c2ccccc12 (stereo partly drawn) [compound 3, A4(19)-CME-NH-Z-ZAE] | + | + | −
Cc1cc(C(=O)NCCC[N+](C)(CCCNC(=O)CCC(=O)OC2CC3C4CCC(=O)C4(C)CCC3C3(C)CCC(=O)C=C23)CCCS(=O)(=O)[O-])cc(C)c1OC(=O)c1c2ccccc2[n+](CCCS(=O)(=O)[O-])c2ccccc12 (stereo not drawn) [compound 4, A4(6β)-hemisuccinate-NH-Z-ZAE] | + | + | +
Cc1cc(C(=O)NCCC[N+](C)(CCCNC(=O)OC2CC3C4CCC(=O)C4(C)CCC3C3(C)CCC(=O)C=C23)CCCS(=O)(=O)[O-])cc(C)c1OC(=O)c1c2ccccc2[n+](CCCS(=O)(=O)[O-])c2ccccc12 (stereo not drawn) [compound 5, A4(6β)-carbamate-NH-Z-ZAE] | − | − | −
Cc1cc(C(=O)NCCC[N+](C)(CCCNC(=O)CCSC2CC3=CC(=O)CCC3(C)C3CCC4(C)C(=O)CCC4C23)CCCS(=O)(=O)[O-])cc(C)c1OC(=O)c1c2ccccc2[n+](CCCS(=O)(=O)[O-])c2ccccc12 (stereo not drawn) [compound 6, A4(7α)-CETE-NH-Z-ZAE] | + | + | +
A4(3)-CMO-Z-ZAE [compound 1] | + | − | +
